Reference: patent publication US20240376378A1, “COLORANT FOR FLUORESCENT LABELING AND FLUORESCENT LABELING AGENT” (artience Co., Ltd., priority 2021, published 2024)

Experiments:
[1] = Measurement of average particle size (Z average, dynamic light scattering) of colorant dispersed component in PBS dispersion; format: physicochemical; conditions: 20 μM DMSO colorant solution diluted 10-fold with PBS to 2 μM, measured within 5 minutes
Procedure: The average particle size of the colorant dispersed component contained in the colorant dispersion I can be measured as follows.
A colorant solution is obtained by dissolving a colorant for fluorescent labeling in an organic solvent that can dissolve the colorant for fluorescent labeling so that the concentration is 20 μM. The colorant solution is diluted 10-fold with PBS and mixed to prepare a colorant dispersion I with a concentration of 2 μM.
Here, the method of mixing the colorant solution and the PBS is not particularly limited, and for example, a method of adding a colorant solution to PBS is preferable. Mixing may be performed separately in a plurality of steps. The method of mixing a colorant solution and PBS is not particularly limited, and a method that can quickly achieve a uniform mixing state is desirable. As an example of the mixing method, mixing can be performed by well-known methods such as stirring with a stirrer, pipetting with a pipette, and using a Vortex mixer. The colorant dispersion I can be obtained, for example, by diluting a colorant solution 10-fold with PBS at 25° C. and mixing by pipetting 10 times or more.
The particle size distribution of the colorant dispersion I obtained as above is measured using a particle size distribution measuring device (Zetasizer Nano ZSP, commercially available from Spectris). It is preferable to measure the average particle size under conditions at 25° C. It is desirable to measure the average particle size within 5 minutes after the colorant dispersion I is prepared.
As the value of the average particle size, values such as a Z average particle size, a number average particle size, a volume average particle size, and an area average particle size can be used. In the present invention, the Z average particle size measured by a dynamic light scattering method is defined as the average particle size of the colorant dispersed component contained in the colorant dispersion I.
After each colorant solution was diluted 10-fold with phosphate buffered saline (PBS) to obtain a colorant dispersion I with a colorant concentration of 2 μM, measurement was performed immediately (within 5 minutes) using a particle size distribution measuring device (Zetasizer Nano ZSP, commercially available from Spectris). The Z average particle size of the colorant fine particles (the colorant dispersed component in the colorant dispersion I) of each colorant for fluorescent labeling was determined based on the following criteria. The determination results are shown in “average particle size” in Table 8.
• 4: Z average particle size 5 nm or more to less than 100 nm • 3: Z average particle size 100 nm or more to less than 300 nm • 2: Z average particle size 300 nm or more to 500 nm or less • 1: Z average particle size more than 500 nm

[2] = Measurement of absorbance retention (A1 in PBS / A0 in dimethyl sulfoxide); format: physicochemical; conditions: A1/A0 at maximum-absorption wavelength; 2 μM in PBS vs 2 μM in dimethyl sulfoxide, within 5 minutes
Procedure: The absorbance retention calculated by Formula (I) is calculated as follows.
A colorant solution I is prepared by dissolving the colorant for fluorescent labeling in a soluble organic solvent so that the concentration is 2 μM. The absorption spectrum of the colorant solution I is measured using a spectrophotometer (U-4100, commercially available from Hitachi High-Tech Corporation), and the absorbance A0 at a maximum-absorption wavelength is determined.
In addition, a colorant dispersion II is prepared by dissolving the colorant for fluorescent labeling in a soluble organic solvent so that the concentration is 20 μM, and this is additionally diluted 10-fold with PBS so that the concentration is 2 μM. The absorption spectrum of the colorant dispersion II is measured using a spectrophotometer (U-4100, commercially available from Hitachi High-Tech Corporation), and the absorbance A1 at a maximum-absorption wavelength is determined. It is preferable to measure the absorbance under conditions at 25° C. In addition, it is desirable to measure the absorbance within 5 minutes after the […] is prepared. The colorant dispersion II can be obtained, for example, by diluting a colorant solution 10-fold with PBS at 25° C. and mixing by pipetting 10 times or more.
After each colorant solution was diluted 10-fold with dimethyl sulfoxide to obtain a colorant solution I with a colorant concentration of 2 μM, the absorption spectrum was measured using a spectrophotometer (U-4100, commercially available from Hitachi High-Tech Corporation), and the absorbance A0 at a maximum-absorption wavelength was obtained. In addition, after each colorant solution was diluted 10-fold with phosphate buffered saline (PBS) to obtain a colorant dispersion II with a colorant concentration of 2 μM, the absorption spectrum was measured immediately (within 5 minutes) using the spectrophotometer, and the absorbance A1 at a maximum-absorption wavelength was obtained. Using the obtained values of A0 and A1, the absorbance retention was calculated from Formula (I), and determined based on the following criteria.
• 4: absorbance retention 0.8 or more • 3: absorbance retention less than 0.8 to 0.5 or more • 2: absorbance retention less than 0.5 to 0.3 or more • 1: absorbance retention less than 0.3

Hela cells = experiment: Evaluation of cell staining: fluorescence intensity by plate reader; format: cell-based; conditions: 1 μM colorant, 1 hour, washed, plate reader 780 to 800 nm
Procedure: Each colorant solution was diluted 20-fold with an Eagle's minimum essential medium (commercially available from FUJIFILM Wako Pure Chemical Corporation) to prepare a fluorescent labeling agent containing 1 μM of the colorant for fluorescent labeling.
Hela cells were seeded in a 96-well plate (1×10^4 cells/well), and cultured in an incubator (37° C., 5% CO2-containing Air, humidified environment) for 48 hours using an Eagle's minimum essential medium (commercially available from FUJIFILM Wako Pure Chemical Corporation) containing 10% Fetal Bovine Serum (FBS) and 1% penicillin-streptomycin. Then, the medium was removed, and the fluorescent labeling agent prepared above was added to each well. The sample was left in an incubator for 1 hour, and then washed with the Eagle's minimum essential medium (commercially available from FUJIFILM Wako Pure Chemical Corporation). Using a plate reader (SPARK, commercially available from Tecan Group Ltd.), the fluorescence intensity was measured in a range of 780 to 800 nm, and evaluated based on the following criteria. […] The evaluation results are shown in “fluorescence intensity during cell staining” in Table 8.
• 4: fluorescence intensity measurement value 2,000 or more • 3: fluorescence intensity measurement value less than 2,000 to 1,000 or more • 2: fluorescence intensity measurement value less than 1,000 to 500 or more • 1: fluorescence intensity measurement value less than 500

Row | Compound | Average particle size [1] | Absorbance retention [2] | Fluorescence intensity during cell staining (Hela cells)
1 | O=C(O)CCOc1ccc(-c2cc3c(o2)=CC2=C(C(F)(F)F)c4cc5oc(-c6ccc(OCCC(=O)O)cc6)cc5n4[B-](F)(F)[N+]=32)cc1 [Colorant for fluorescent labeling 23] | 3 (Z average particle size 100 nm or more to less than 300 nm) | 4 (absorbance retention 0.8 or more) | 4 (fluorescence intensity measurement value 2,000 or more)
2 | O=P(O)(O)CCOc1ccc(-c2cc3c(o2)=CC2=C(C(F)(F)F)c4cc5oc(-c6ccc(OCCP(=O)(O)O)cc6)cc5n4[B-](F)(F)[N+]=32)cc1 [Colorant for fluorescent labeling 24] | 3 (Z average particle size 100 nm or more to less than 300 nm) | 4 (absorbance retention 0.8 or more) | 4 (fluorescence intensity measurement value 2,000 or more)
3 | CCCCCCCCCCCCCCCCCCN1/C(=C/C=C/C=C/C=C/C2=[N+](CCCCCCCCCCCCCCCCCC)c3ccccc3C2(C)C)C(C)(C)c2ccccc21.[I-] [Comparative compound 6] | 2 (Z average particle size 300 nm or more to 500 nm or less) | 2 (absorbance retention less than 0.5 to 0.3 or more) | 1 (fluorescence intensity measurement value less than 500)
4 | Aluminum 1, 8, 15, 22-tetrakis(phenylthio)-29H, 31H-phthalocyanine chloride [Comparative compound 3] | 1 (Z average particle size more than 500 nm) | 1 (absorbance retention less than 0.3) | 1 (fluorescence intensity measurement value less than 500)
